One experiment relates to rat oligodendrocytes. The experiment can be described thus: Cultured rat oligodendrocytes treated with recombinant rat IFN-γ. Format: cell-based. The procedure: To test whether apoptosis of oligodendrocytes that is induced by INF-γ affects ER stress, the effect on the morphology, the degree of apoptosis and the expression of ER markers was studied in a culture of oligodendrocyte precursor cells (OPC). Oligodendrocyte progenitors were cultured from neonatal rat brains (Baerwald, et al. (1998) J. Neurosci Res. 52: 230-239). A mixed glial culture was grown in flasks in medium containing 10% fetal bovine serum (FBS), and when the astrocyte layer became confluent (10-14 days), oligodendrocyte progenitors were separated from astrocytes and microglia using an orbital shaker. Cells, greater than 95% of which were A2B5 positive, GFAP negative and CD11b negative, were cultured in 0.5% FBS containing medium, which also contained PDGF (10 ng/ml) and FGF (5 ng/ml) (both from R&D Systems, Minneapolis, Minn.). Then cells were switched to 0.5% FBS medium without PDGF and FGF for differentiation. After 5 days in the differentiating medium, approximately 40% of cells were positive for myelin protein 2′3′-cyclic nucleotide 3′-phosphodiestaerase (CNP). 70 U/ml recombinant rat IFN-γ (Calbiochem, La Jolla, Calif.) was added to the cells that had been allowed to differentiation for 5 days. […] To examine the oligodendroglial response to general ER stress-inducing agents, progenitor cells that had been cultured in differentaition medium for 5 or 7 days were treated with 2 μg/ml of tunicamycin (Sigma Aldrich) for 6 hours.
The level of apoptosis of the OPC cells was determined by double staining CNP (1:200; Sternberger Monoclonals, Lutherville, Md.) and TUNEL using the ApopTag Kit (Serologicals Corp., Norcross, Calif.) and following the manufacturer's instructions. Apoptosis was also evaluated by measuring the activity of caspase-3 in oligodendrocyte lysates using the Fluorimetric Caspase 3 Assay Kit (Sigma, St. Louis, Mo.), according to the manufacturer's instructions.
To determine whether INF-γ affects ER function, the RNA expression of ER markers binding immunoglobulin protein (BIP), CAAT enhancer binding protein homologous protein (CHOP), and caspase 12 was determined using real time PCR. RNA was isolated from cultured cells and mice brain using Trizol reagent (Invitrogen, Carlsbad, Calif.) and treated with DNAaseI (Invitrogen) to eliminate genomic DNA. Reverse transcription was performed using Superscript First Strand Synthesis System for RT-PCR kit (Invitrogen). Real-time PCR was performed with iQ Supermix (Bio-Rad, Hercules, Calif.) on a Bio-Rad iQ real-time PCR detection system (Bio-Rad). The following primers and probes (Integrated DNA Technologies Inc., Coralville, Iowa) for real-time PCR were used: mouse CHOP sense primer […] (SEQ ID NO: 34); mouse CHOP antisense primer […] (SEQ ID NO: 35); CHOP probe […] (SEQ ID NO: 36); mouse BIP sense primer […] (SEQ I DNO: 31); mouse BIP antisense primer […] (SEQ ID NO: 32); BIP probe […] (SEQ ID NO: 33); mouse caspase 12 sense primer […] (SEQ ID NO: 37); and mouse caspase antisense primer […] (SEQ ID NO: 38).
To determine the effect of INF-γ on the level of phosphorylated eIF-2α and caspase 12 proteins, western blot analysis was performed using the following antibodies anti-eIF-2α (1:500; Santa Cruz), anti-p-eIF-2α (1:1000, Cell signaling Technology), anti-caspase-12 (1:500; Santa Cruz) and anti-actin (1:1000; Sigma, St Louis, Mo.), and according to the following protocol. […]

A further experiment has as its system Stat1. Kind of experiment: Stat1 nuclear translocation assay in mixed primary oligodendrocyte cultures. Format: cell-based, mice. To be noted: 100 U/mL IFN-γ for 30 min, one hundred PLP positive cells counted. The procedure: Mixed primary oligodendrocyte cultures were prepared as previously described (Baerwald et al., 2000). Briefly, brain tissue was harvested from 2-3-day-old newborn pups of PLP/SOCS1 and C57B1/6J matings. Because the litters contained transgenic and wild-type pups, the brain of each animal was processed individually, cultured separately, and later genotype matched. Each brain was digested separately using 0.25% trypsin and 10 μg/ml of DNAaseI (Invitrogen) in Dulbecco's modified Eagle's medium (DMEM) for 20 min at 37° C., and cells were cultured on separate poly-D-lysine-coated […] flasks (Sigma-Aldrich). The cultures were maintained with 10% fetal bovine serum DMEM at 37° C. with 5% CO2 for 12 days, and then switched to a defined medium containing […], 50 μg/ml of transferrin, 30 nM of selenium, 10 nM of biotin, 10 nM of progesterone, 15 nM of T3, 0.1% bovine serum albumin, and 1% ampicillin-streptomycin (Sigma-Aldrich). […] One hundred PLP positive cells were manually counted in both wild-type and PLP/SOCS1 cultures. […]
The responsiveness of PLP/SOCS1 oligodendrocytes to IFN-γ was studied in primary mixed glial cultures. […] In contrast, Stat1 nuclear translocation was detected only in occasional PLP positive oligodendrocytes (6±2 cells) following IFN-γ stimulation (p<0.05).

Turning to “IFN-γ: pleotropic cytokine secreted by activated T lymphocytes and natural killer cells; delivered to the CNS by transgene or added as recombinant protein”, in the experiment with rat oligodendrocytes (70 U/ml IFN-γ), the “caspase-3 activity in cell lysates” value is reported as “markedly increased”, the “caspase-12 expression (real-time PCR)” value is listed as “induction of caspase-12 was observed” and the “level of phosphorylated eIF-2α (Western blot)” value is listed as “significantly elevated”. Besides, the “apoptosis (TUNEL and CNP double labeling)” value in the experiment on rat oligodendrocytes (70 U/ml IFN-γ for 48 h) was “induced apoptosis in a significant number of oligodendrocytes”. Besides, the cell morphology entry in the experiment on rat oligodendrocytes (70 U/ml IFN-γ for 48 h, cells differentiated 5 days) is listed as “abnormal morphological changes”. The “level of the active fragment of caspase-12 (Western blot)” value in the experiment on rat oligodendrocytes (after 48 h of IFN-γ treatment) is given as “strongly elevated”. In the experiment with Stat1 (PLP/SOCS1 cultures), the “PLP positive oligodendrocytes with Stat1 nuclear translocation” value is listed as 6±2 cells. Besides, the “PLP positive oligodendrocytes with Stat1 nuclear translocation” value in the experiment on Stat1 (wild-type cultures) was determined as 96±3 cells.

The values above are taken from US8053627B2, “Methods for treating demyelination disorders” (University of Chicago, priority 2005, dated 2011).
